Values quoted from earlier work as cited in patent publication US20160095816A2, “ARTICLE AND METHODS FOR ORAL SELF-ADMINISTRATION OF NICOTINE” (priority 2012, published 2016).

Tests used:
[1] = cigarette smoking, inhaled; "may be as high as"
[2] = metabolized in the liver

For CN1CCCC1c1cccnc1 (centres unmarked) [Nicotine, 3-(1-Methyl-2-pyrrolidinyl) pyridine], the “peak of nicotine delivered into the bloodstream through smoking” value [1] is listed as 30-40 nanograms per milliliter of blood and the “half life in the bloodstream” value [2] is listed as 1 to 2 h.
